Experimental data taken from PubChem BioAssay AID2060486 (Molecular Pharmacology Branch, DTP, NCI, 2025).

Tested on: IGROV1 complex spheroids (HUVEC, MSC), viability % test/control
Test: Anticancer human tumor IGROV1 cell line growth inhibition [GQUAD];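 also: spheroids exposed to compounds for 7 days before readout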;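 as to viability, T/C: 100% = DMSO vehicle control viability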
Details: for IC50: curve of first compound; for viability, T/C: stronger effect = lower value
How it was run: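 Tumor cells were grown as complex spheroids with HUVEC endothelial cells and mesenchymal stem cells as stroma. G-quadruplex stabilizers were combined with targeted agents over half-log dilutions from near the clinical Cmax, or from 10 microM.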

[1] = second compound 0.0316 µM, first compound 0.0316 µM
[2] = second compound 0.0316 µM, first compound 0.1 µM
[3] = second compound 0.0316 µM, first compound 0.316 µM
[4] = second compound 0.0316 µM, first compound 1 µM
[5] = second compound 0.0316 µM, first compound 3.16 µM
[6] = second compound 0.0316 µM, first compound 10 µM
[7] = second compound 0.1 µM, first compound 0.0316 µM
[8] = second compound 0.1 µM, first compound 0.1 µM
[9] = second compound 0.1 µM, first compound 0.316 µM
[10] = second compound 0.1 µM, first compound 1 µM
[11] = second compound 0.1 µM, first compound 3.16 µM
[12] = second compound 0.1 µM, first compound 10 µM
[13] = second compound 0.316 µM, first compound 0.0316 µM
[14] = second compound 0.316 µM, first compound 0.1 µM
[15] = second compound 0.316 µM, first compound 0.316 µM
[16] = second compound 0.316 µM, first compound 1 µM
[17] = second compound 0.316 µM, first compound 3.16 µM
[18] = second compound 0.316 µM, first compound 10 µM
[19] = second compound 1 µM, first compound 0.0316 µM
[20] = second compound 1 µM, first compound 0.1 µM
[21] = second compound 1 µM, first compound 0.316 µM
[22] = second compound 1 µM, first compound 1 µM
[23] = second compound 1 µM, first compound 3.16 µM
[24] = second compound 1 µM, first compound 10 µM
[25] = second compound 3.16 µM, first compound 0.0316 µM
[26] = second compound 3.16 µM, first compound 0.1 µM
[27] = second compound 3.16 µM, first compound 0.316 µM
[28] = second compound 3.16 µM, first compound 1 µM
[29] = second compound 3.16 µM, first compound 3.16 µM
[30] = second compound 3.16 µM, first compound 10 µM
[31] = second compound 10 µM, first compound 0.0316 µM
[32] = second compound 10 µM, first compound 0.1 µM
[33] = second compound 10 µM, first compound 0.316 µM
[34] = second compound 10 µM, first compound 1 µM
[35] = second compound 10 µM, first compound 3.16 µM
[36] = second compound 10 µM, first compound 10 µM

C=CC(=O)N1CCN(c2nc(=O)n(-c3c(C)ccnc3C(C)C)c3nc(-c4c(O)cccc4F)c(F)cc23)C(C)C1 (stereo unspecified) + CN(C)c1ccc(Nc2c3ccc(NC(=O)CCN4CCCC4)cc3nc3cc(NC(=O)CCN4CCCC4)ccc23)cc1
IC50 (second compound 0.0316 µM): > 10000 nM | IC50 (second compound 0.1 µM): > 10000 nM | IC50 (second compound 0.316 µM): > 10000 nM | IC50 (second compound 1 µM): > 10000 nM | IC50 (second compound 3.16 µM): > 10000 nM | IC50 (second compound 10 µM): 4880 nM | viability, T/C [1]: 99.1% | viability, T/C [2]: 100% | viability, T/C [3]: 106% | viability, T/C [4]: 90.7% | viability, T/C [5]: 104% | viability, T/C [6]: 90.5% | viability, T/C [7]: 99.7% | viability, T/C [8]: 90.3% | viability, T/C [9]: 96.3% | viability, T/C [10]: 88.5% | viability, T/C [11]: 111% | viability, T/C [12]: 104% | viability, T/C [13]: 91.5% | viability, T/C [14]: 75.2% | viability, T/C [15]: 88.4% | viability, T/C [16]: 83.3% | viability, T/C [17]: 111% | viability, T/C [18]: 83.3% | viability, T/C [19]: 90.1% | viability, T/C [20]: 70.3% | viability, T/C [21]: 93.7% | viability, T/C [22]: 108% | viability, T/C [23]: 106% | viability, T/C [24]: 95.1% | viability, T/C [25]: 86% | viability, T/C [26]: 86.4% | viability, T/C [27]: 101% | viability, T/C [28]: 99.5% | viability, T/C [29]: 99.5% | viability, T/C [30]: 77.8% | viability, T/C [31]: 62.6% | viability, T/C [32]: 58.7% | viability, T/C [33]: 67.2% | viability, T/C [34]: 71.8% | viability, T/C [35]: 64.1% | viability, T/C [36]: 26.3%

CCc1c2c(nc3ccc(O)cc13)-c1cc3c(c(=O)n1C2)COC(=O)[C@]3(O)CC + CN(C)c1ccc(Nc2c3ccc(NC(=O)CCN4CCCC4)cc3nc3cc(NC(=O)CCN4CCCC4)ccc23)cc1
IC50 (second compound 0.0316 µM): 1.22 nM | IC50 (second compound 0.1 µM): 1.05 nM | IC50 (second compound 0.316 µM): < 0.999 nM | IC50 (second compound 1 µM): < 0.999 nM | IC50 (second compound 3.16 µM): < 0.999 nM | IC50 (second compound 10 µM): < 0.999 nM | viability, T/C (second compound 0.0316 µM, first compound 0.000999 µM): 57.5% | viability, T/C (second compound 0.0316 µM, first compound 0.00316 µM): 15.8% | viability, T/C (second compound 0.0316 µM, first compound 0.00999 µM): 11.4% | viability, T/C [1]: 7.01% | viability, T/C (second compound 0.0316 µM, first compound 0.0999 µM): 5.52% | viability, T/C [3]: 1.54% | viability, T/C (second compound 0.1 µM, first compound 0.000999 µM): 51.9% | viability, T/C (second compound 0.1 µM, first compound 0.00316 µM): 15.3% | viability, T/C (second compound 0.1 µM, first compound 0.00999 µM): 11.3% | viability, T/C [7]: 8.79% | viability, T/C (second compound 0.1 µM, first compound 0.0999 µM): 5.38% | viability, T/C [9]: 1.47% | viability, T/C (second compound 0.316 µM, first compound 0.000999 µM): 49.7% | viability, T/C (second compound 0.316 µM, first compound 0.00316 µM): 16.7% | viability, T/C (second compound 0.316 µM, first compound 0.00999 µM): 9.1% | viability, T/C [13]: 8.69% | viability, T/C (second compound 0.316 µM, first compound 0.0999 µM): 3.87% | viability, T/C [15]: 1.5% | viability, T/C (second compound 1 µM, first compound 0.000999 µM): 49.5% | viability, T/C (second compound 1 µM, first compound 0.00316 µM): 13.7% | viability, T/C (second compound 1 µM, first compound 0.00999 µM): 9.93% | viability, T/C [19]: 8.16% | viability, T/C (second compound 1 µM, first compound 0.0999 µM): 5.08% | viability, T/C [21]: 2.04% | viability, T/C (second compound 3.16 µM, first compound 0.000999 µM): 42.3% | viability, T/C (second compound 3.16 µM, first compound 0.00316 µM): 11.4% | viability, T/C (second compound 3.16 µM, first compound 0.00999 µM): 8.41% | viability, T/C [25]: 8.25% | viability, T/C (second compound 3.16 µM, first compound 0.0999 µM): 5.52% | viability, T/C [27]: 1.58% | viability, T/C (second compound 10 µM, first compound 0.000999 µM): 20.3% | viability, T/C (second compound 10 µM, first compound 0.00316 µM): 10.7% | viability, T/C (second compound 10 µM, first compound 0.00999 µM): 9.09% | viability, T/C [31]: 5.5% | viability, T/C (second compound 10 µM, first compound 0.0999 µM): 2.71% | viability, T/C [33]: 2.02%

COc1cc(C2c3cc4c(cc3C(OC3OC5COC(C)OC5C(O)C3O)C3COC(=O)C23)OCO4)cc(OC)c1O (stereo unspecified) + CN(C)c1ccc(Nc2c3ccc(NC(=O)CCN4CCCC4)cc3nc3cc(NC(=O)CCN4CCCC4)ccc23)cc1
IC50 (second compound 0.0316 µM): 138 nM | IC50 (second compound 0.1 µM): 109 nM | IC50 (second compound 0.316 µM): 93.5 nM | IC50 (second compound 1 µM): 84.1 nM | IC50 (second compound 3.16 µM): 98.5 nM | IC50 (second compound 10 µM): < 31.6 nM | viability, T/C [1]: 88.3% | viability, T/C [2]: 59.8% | viability, T/C [3]: 25.1% | viability, T/C [4]: 13.8% | viability, T/C [5]: 9.71% | viability, T/C [6]: 6.8% | viability, T/C [7]: 90.7% | viability, T/C [8]: 51.9% | viability, T/C [9]: 24.9% | viability, T/C [10]: 11.9% | viability, T/C [11]: 9.44% | viability, T/C [12]: 6.65% | viability, T/C [13]: 88% | viability, T/C [14]: 47.6% | viability, T/C [15]: 23.2% | viability, T/C [16]: 11.3% | viability, T/C [17]: 9.49% | viability, T/C [18]: 5.93% | viability, T/C [19]: 83.4% | viability, T/C [20]: 44.5% | viability, T/C [21]: 18.1% | viability, T/C [22]: 12.9% | viability, T/C [23]: 9.59% | viability, T/C [24]: 5.75% | viability, T/C [25]: 85.2% | viability, T/C [26]: 49.4% | viability, T/C [27]: 24.6% | viability, T/C [28]: 11% | viability, T/C [29]: 9.22% | viability, T/C [30]: 5.74% | viability, T/C [31]: 50.3% | viability, T/C [32]: 22.1% | viability, T/C [33]: 13.1% | viability, T/C [34]: 7.21% | viability, T/C [35]: 6.58% | viability, T/C [36]: 4.87%
